Experimental data taken from patent US9334246B2, “Substituted triazines for malaria treatment and chemoprophylaxis” (The United States of America, as represented by the …, priority 2013, dated 2016).

Key:
Assay type in all cases: cell-based, Plasmodium falciparum
Settings in all cases: SYBR Green Assay
[1] = tested on: P. falciparum D6; assay: Malaria SYBR Green Fluorescence Assay, D6 strain
[2] = tested on: P. falciparum W2; assay: Malaria SYBR Green Fluorescence Assay, W2 strain
[3] = tested on: P. falciparum C235; assay: Malaria SYBR Green Fluorescence Assay, C235 strain

Compound	D6 [1] [ng/mL]	W2 [2] [ng/mL]	C235 [3] [ng/mL]
CCN(CC)CCNc1nc(-c2ccccc2OC)nc(C(Cl)(Cl)Cl)n1 [Cmpd 107]	212	95	158
COc1ccc(-c2nc(N3CCCN(C)CC3)nc(C(Cl)(Cl)Cl)n2)cc1 [Cmpd 111]	191	103	232
Cc1ccc(-c2nc(N3CCCN(C)CC3)nc(C(Cl)(Cl)Cl)n2)cc1 [Cmpd 112]	168	107	209
CC(C)(C)c1ccc(-c2nc(N3CCCNCC3)nc(C(Cl)(Cl)Cl)n2)cc1 [Cmpd 115]	357	242	360
CCN(CC)CCNc1nc(-c2ccccc2C)nc(C(Cl)(Cl)Cl)n1 [Cmpd 123]	57	31	67
CN(Cc1ccccc1-c1cccnc1)c1nc(-c2ccc(S(C)(=O)=O)cc2)nc(C(Cl)(Cl)Cl)n1 [Cmpd 129]	170	102	233
CS(=O)(=O)c1ccc(-c2nc(N3CCCN(CCO)CC3)nc(C(Cl)(Cl)Cl)n2)cc1 [Cmpd 132]	64	103	200
Clc1ccc(-c2nc(NCCc3ccncc3)nc(C(Cl)(Cl)Cl)n2)cc1 [Cmpd 139]	202	81	320
Clc1ccc(-c2nc(NCc3ccccn3)nc(C(Cl)(Cl)Cl)n2)cc1 [Cmpd 141]	556	237	652
Clc1ccc(-c2nc(NCc3cccnc3)nc(C(Cl)(Cl)Cl)n2)cc1 [Cmpd 142]	306	112	469
Cc1ccc(-c2nc(NCCc3ccncc3)nc(C(Cl)(Cl)Cl)n2)cc1 [Cmpd 145]	168	94	344
COc1ccccc1-c1nc(NCCc2ccncc2)nc(C(Cl)(Cl)Cl)n1 [Cmpd 146]	539	246	804
COc1ccc(-c2nc(NCCc3ccncc3)nc(C(Cl)(Cl)Cl)n2)cc1 [Cmpd 147]	155	77	233
CC(C)(C)c1ccc(-c2nc(NCCc3ccncc3)nc(C(Cl)(Cl)Cl)n2)cc1 [Cmpd 148]	621	151	671
COc1cccc(-c2nc(NCCc3ccncc3)nc(C(Cl)(Cl)Cl)n2)c1 [Cmpd 151]	346	133	549
COc1cccc(-c2nc(NCc3cccnc3)nc(C(Cl)(Cl)Cl)n2)c1 [Cmpd 155]	318	145	614
CC(C)(C)c1ccc(-c2nc(NCc3cccnc3)nc(C(Cl)(Cl)Cl)n2)cc1 [Cmpd 158]	260	92	324
CSc1ccc(-c2nc(NCc3cccnc3)nc(C(Cl)(Cl)Cl)n2)cc1 [Cmpd 160]	789	238	896
COc1ccc(-c2nc(NCc3ccccn3)nc(C(Cl)(Cl)Cl)n2)cc1 [Cmpd 168]	755	338	898
Cc1ccc(-c2nc(NCCc3cccnc3)nc(C(Cl)(Cl)Cl)n2)cc1 [Cmpd 172]	209	106	346
COc1ccc(-c2nc(NCCc3cccnc3)nc(C(Cl)(Cl)Cl)n2)cc1 [Cmpd 174]	430	181	641
CC(C)(C)c1ccc(-c2nc(NCCc3cccnc3)nc(C(Cl)(Cl)Cl)n2)cc1 [Cmpd 175]	110	54	165
CS(=O)(=O)c1ccc(-c2nc(NCc3ccccn3)nc(C(Cl)(Cl)Cl)n2)cc1 [Cmpd 177]	355	186	565

Compound	D6 [1] [ng/mL]	W2 [2] [ng/mL]	C235 [3] [ng/mL]
CS(=O)(=O)c1ccc(-c2nc(NCCc3ccncc3)nc(C(Cl)(Cl)Cl)n2)cc1 [Cmpd 178]	392	162	518
CS(=O)(=O)c1ccc(-c2nc(NCCc3cccnc3)nc(C(Cl)(Cl)Cl)n2)cc1 [Cmpd 179]	471	201	680
COc1ccc(-c2nc(NCCc3ccccn3)nc(C(Cl)(Cl)Cl)n2)cc1 [Cmpd 185]	185	63	244
FC(F)(F)c1cccc(-c2nc(NCCc3ccccn3)nc(C(Cl)(Cl)Cl)n2)c1 [Cmpd 186]	494	115	499
ClC(Cl)(Cl)c1nc(NCCc2ccccn2)nc(-c2ccccc2)n1 [Cmpd 188]	176	42	197
ClC(Cl)(Cl)c1nc(NCCCN2CCCC2)nc(-c2ccc(-c3ccccc3)cc2)n1 [Cmpd 197]	128	105	137
ClC(Cl)(Cl)c1nc(-c2ccc(-c3ccccc3)cc2)nc(N2CCCNCC2)n1 [Cmpd 198]	64	40	70
Clc1cc(Cl)cc(-c2nc(N3CCCNCC3)nc(C(Cl)(Cl)Cl)n2)c1 [Cmpd 204]	231	78	214
Clc1cc(Cl)cc(-c2nc(NCc3cccnc3)nc(C(Cl)(Cl)Cl)n2)c1 [Cmpd 209]	122	67	112
Clc1cc(Cl)cc(-c2nc(NCc3ccccn3)nc(C(Cl)(Cl)Cl)n2)c1 [Cmpd 210]	112	72	78
CCN1CCCC(Nc2nc(-c3ccccc3OC)nc(C(Cl)(Cl)Cl)n2)C1 (stereo not drawn) [Cmpd 215]	426	132	248
COc1ccccc1-c1nc(N2CCCNCC2)nc(C(Cl)(Cl)Cl)n1 [Cmpd 218]	104	38	73
ClC(Cl)(Cl)c1nc(NCCc2ccncc2)nc(-c2ccc3ccccc3c2)n1 [Cmpd 230]	246	59	212
COc1cccc(-c2nc(NCCC3CCCN3C)nc(C(Cl)(Cl)Cl)n2)c1 (stereo not drawn) [Cmpd 236]	52	50	60
CN1CCN(c2nc(-c3ccccc3)nc(C(Cl)(Cl)Cl)n2)CC1 [Cmpd 239]	192	125	158
CCN(CC)CCNc1nc(Cc2cccc(OC)c2)nc(C(Cl)(Cl)Cl)n1 [Cmpd 243]	199	123	128
CC(C)(C)c1ccc(-c2nc(NCCN3CCCC3)nc(C(Cl)(Cl)Cl)n2)cc1 [Cmpd 246]	48	59	35
CCN(CC)CCNc1nc(-c2ccccc2-c2ccc(C)cc2)nc(C(Cl)(Cl)Cl)n1 [Cmpd 254]	632	492	462
CCN1CCC(CNc2nc(-c3ccc(Cl)c(Cl)c3)nc(C(Cl)(Cl)Cl)n2)CC1 [Cmpd 257]	54	45	29
CCN1CCC(CNc2nc(-c3cccc(OC)c3)nc(C(Cl)(Cl)Cl)n2)CC1 [Cmpd 258]	50	29	26
CCN1CCC(CNc2nc(-c3ccccc3-c3ccc(C)cc3)nc(C(Cl)(Cl)Cl)n2)CC1 [Cmpd 259]	162	105	113
CCN1CCC(CNc2nc(-c3ccc(C)cc3)nc(C(Cl)(Cl)Cl)n2)CC1 [Cmpd 265]	803	714	672
